Measurements taken from ChEMBL document CHEMBL4321870, “Benzophenone Compounds, from a Marine-Derived Strain of the Fungus Pestalotiopsis neglecta, Inhibit Proliferation of Pancreatic Cancer Cells by Targeting the MEK/ERK Pathway” (J Nat Prod, 2019).
Activity calls are given as the source filed them. The calls are words filed in the database; no cut-off is given here.

Legend:
PANC-1 [1] = test: Antiproliferative activity against human PANC1 cells incubated for 72 hrs by MTT assay; assay type: functional, cell-based; settings: PANC-1, 72 h
PANC-1 [2] = test: Inhibition of colony formation in human PANC1 cells incubated for 14 days by crystal violet staining based assay; assay type: functional, cell-based
PANC-1 [3] = test: Induction of apoptosis in human PANC1 cells assessed as increase in cleaved caspase-3 level incubated for 24 hrs by Western blot analysis; assay type: functional, cell-based
PANC-1 [4] = test: Induction of apoptosis in human PANC1 cells assessed as increase in cleaved PARP level incubated for 24 hrs by Western blot analysis; assay type: functional, cell-based
[5] = molecular target: T1, Dual specificity mitogen-activated protein kinase kinase; MEK1/2 (Homo sapiens) (UniProt P36507+Q02750); test: Inhibition of MEK1/2 in human PANC1 cells assessed as decrease in phosphorylated levels of MEK at S217/221 at 5 uM incubated for 24 hrs by Western blotting analysis; assay type: cell-based
T1 sequence (P36507 whole entry, looked up): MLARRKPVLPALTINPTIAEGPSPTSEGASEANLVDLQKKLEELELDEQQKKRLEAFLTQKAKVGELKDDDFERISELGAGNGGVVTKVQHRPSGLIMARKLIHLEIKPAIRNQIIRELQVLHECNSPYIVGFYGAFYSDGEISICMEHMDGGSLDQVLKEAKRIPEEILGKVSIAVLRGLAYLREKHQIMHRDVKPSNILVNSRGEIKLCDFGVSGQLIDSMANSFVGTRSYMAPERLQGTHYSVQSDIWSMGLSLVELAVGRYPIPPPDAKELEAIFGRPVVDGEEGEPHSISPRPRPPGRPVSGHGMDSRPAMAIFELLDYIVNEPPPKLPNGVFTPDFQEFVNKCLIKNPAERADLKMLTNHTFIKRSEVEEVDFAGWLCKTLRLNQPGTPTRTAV
T1 sequence (Q02750 whole entry, looked up): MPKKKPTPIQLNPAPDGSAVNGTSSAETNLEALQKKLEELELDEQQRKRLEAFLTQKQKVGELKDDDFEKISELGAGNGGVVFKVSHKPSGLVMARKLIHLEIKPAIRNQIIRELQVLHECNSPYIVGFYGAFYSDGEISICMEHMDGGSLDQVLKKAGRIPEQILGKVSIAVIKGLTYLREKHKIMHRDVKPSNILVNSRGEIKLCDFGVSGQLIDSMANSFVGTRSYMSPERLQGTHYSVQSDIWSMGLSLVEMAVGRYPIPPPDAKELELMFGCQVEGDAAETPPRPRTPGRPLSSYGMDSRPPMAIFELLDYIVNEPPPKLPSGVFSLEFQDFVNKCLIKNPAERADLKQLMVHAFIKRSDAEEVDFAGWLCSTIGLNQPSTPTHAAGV

[6] = molecular target: T1, Dual specificity mitogen-activated protein kinase kinase; MEK1/2 (Homo sapiens); test: Inhibition of MEK1/2 in human PANC1 cells assessed as decrease in phosphorylated levels of ERK(T202/Y204) at 5 uM incubated for 24 hrs by Western blotting analysis; assay type: cell-based
[7] = molecular target: T1, Dual specificity mitogen-activated protein kinase kinase; MEK1/2 (Homo sapiens); test: Inhibition of MEK1/2 in human PANC1 cells assessed as decrease in phosphorylated levels of ERK(T202/Y204) in nuclear fraction at 5 uM incubated for 24 hrs by Western blotting analysis; assay type: cell-based
A549 = test: Antiproliferative activity against human A549 cells incubated for 72 hrs by MTT assay; assay type: functional, cell-based; settings: A549, 72 h
HCT-116 = test: Antiproliferative activity against human HCT116 cells incubated for 72 hrs by MTT assay; assay type: functional, cell-based; settings: HCT-116, 72 h
[8] = Antiproliferative activity against human MCF cells incubated for 72 hrs by MTT assay; assay type: functional, cell-based
DU-145 = test: Antiproliferative activity against human DU145 cells incubated for 72 hrs by MTT assay; assay type: functional, cell-based; settings: DU-145, 72 h
HepG2 = test: Antiproliferative activity against human HepG2 cells incubated for 72 hrs by MTT assay; assay type: functional, cell-based; settings: HepG2, 72 h
[9] = molecular target: T1, Dual specificity mitogen-activated protein kinase kinase; MEK1/2 (Homo sapiens); settings: 10 uM
Description: Inhibition of MEK1/2 in human PANC1 cells assessed as decrease in phosphorylated levels of MEK at S217/221 at 10 uM incubated for 24 hrs by Western blotting analysis

## CC(C)=CCc1c(O)cc(O)c2c1C(=O)c1c(O)c(Cl)c(C)c(Cl)c1OC2 [PESTALACHLORIDE B]
PANC-1 [1]
  IC50: > 50 µM

## COc1c(Cl)c(C)c(Cl)c(O)c1C(=O)c1c(C=O)c(O)cc(O)c1CC=C(C)C [PESTALONE]
PANC-1 [1]
  IC50: 14 µM

## CC(C)=CCc1c(O)cc(O)c(C=O)c1C(=O)c1c(O)cc(C)c(Br)c1O
PANC-1 [1]
  IC50: 7.6 µM
PANC-1 [2]
  inhibition: Dose-dependent effect
PANC-1 [3]
  Activity: Dose-dependent effect
PANC-1 [4]
  Activity: Dose-dependent effect
[5]
  inhibition: Active
[6]
  inhibition: Active
[7]
  inhibition: Active

## COc1cc(C)c(Br)c(O)c1C(=O)c1c(C=O)c(O)cc(O)c1CC=C(C)C
PANC-1 [1]
  IC50: 26 µM

## COc1cc(C)c(Cl)c(O)c1C(=O)c1c(C=O)c(O)cc(O)c1CC=C(C)C
PANC-1 [1]
  IC50: 14 µM
A549
  IC50: 14 µM
HCT-116
  IC50: 10 µM
[8]
  IC50: 11 µM
DU-145
  IC50: 21 µM
HepG2
  IC50: 37 µM

## O=c1[nH]cc(F)c(=O)[nH]1 [FLUOROURACIL]
PANC-1 [1]
  IC50: 15 µM
[8]
  IC50: 11 µM
DU-145
  IC50: 2.5 µM
HepG2
  IC50: 2.5 µM

## CC(C)=CCc1c(O)cc(O)c(C=O)c1C(=O)c1c(O)cc(C)c(Cl)c1O
PANC-1 [1]
  IC50: 7.2 µM
PANC-1 [2]
  inhibition: Dose-dependent effect
PANC-1 [3]
  Activity: Dose-dependent effect
PANC-1 [4]
  Activity: Dose-dependent effect
[5]
  inhibition: Active
[6]
  inhibition: Active
[7]
  inhibition: Active
A549
  IC50: 7.8 µM
HCT-116
  IC50: 5.5 µM
[8]
  IC50: 7.5 µM
DU-145
  IC50: 14 µM
HepG2
  IC50: 23 µM

## COc1cccc(-c2cc(=O)c3ccccc3o2)c1N
[9]
  inhibition: Active
